Experimental data as given in ChEMBL document CHEMBL1201862, “PubChem BioAssay data set” (2004).
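A five-concentration, 48-hour dose response in 96-well plates underlies each endpoint, interpolated linearly between surrounding concentrations. GI50 = concentration required for 50% inhibition of growth.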 Active and inactive are the calls of the source. No stated cut-off is given here; in the data, active = GI50 up to about 1.1 µM and inactive = higher.

Assays:
Experiment in all cases: growth of human tumour cells (NCI), 48 h
NCI-H23 = tested on: NCI-H23
HCT-15 = tested on: HCT-15
MDA-N = tested on: MDA-N
MOLT-4 = tested on: MOLT-4
K562 = tested on: K562
EKVX = tested on: EKVX
Hs-578T = tested on: Hs-578T
SK-MEL-28 = tested on: SK-MEL-28
SK-MEL-2 = tested on: SK-MEL-2
RXF 393 = tested on: RXF 393
UACC-257 = tested on: UACC-257
SW-620 = tested on: SW-620
T47D = tested on: T47D
OVCAR-8 = tested on: OVCAR-8
A549 = tested on: A549
U-251 = tested on: U-251
ACHN = tested on: ACHN
MDA-MB-435 = tested on: MDA-MB-435
OVCAR-5 = tested on: OVCAR-5
SK-OV-3 = tested on: SK-OV-3

## CC1=NN(c2cccc(Cl)c2)C2(SCC(=O)N2c2nc3ccccc3s2)/C1=C\c1cccs1 (stereo unspecified)
NCI-H23
  GI50: 18.5 µM (inactive)
HCT-15
  GI50: 20.7 µM
MDA-N
  GI50: 21.1 µM (inactive)
MOLT-4
  GI50: 11.4 µM (inactive)
K562
  GI50: 4.58 µM (inactive)
EKVX
  GI50: 14.6 µM (inactive)
Hs-578T
  GI50: 22.5 µM (inactive)
SK-MEL-28
  GI50: 29.4 µM (inactive)
SK-MEL-2
  GI50: 18.8 µM (inactive)
RXF 393
  GI50: 20.3 µM (inactive)
UACC-257
  GI50: 24.4 µM (inactive)
SW-620
  GI50: 34.3 µM (inactive)
T47D
  GI50: 24.9 µM (inactive)
OVCAR-8
  GI50: 20.8 µM (inactive)
A549
  GI50: 33.8 µM (inactive)
U-251
  GI50: 20.3 µM (inactive)
ACHN
  GI50: 27.9 µM (inactive)
MDA-MB-435
  GI50: 30.5 µM (inactive)
OVCAR-5
  GI50: 20.8 µM (inactive)

## COc1ccc(C2SC(=N)Nc3c2c(C)nn3C(=O)c2ccccc2O)cc1OC (stereo unspecified)
NCI-H23
  GI50: 3.52 µM (inactive)
HCT-15
  GI50: 4.78 µM
MDA-N
  GI50: 6.08 µM (inactive)
MOLT-4
  GI50: 4.06 µM (inactive)
K562
  GI50: 3.53 µM (inactive)
EKVX
  GI50: > 10 µM (inactive)
Hs-578T
  GI50: 1.56 µM (inactive)
SK-MEL-28
  GI50: 9.51 µM (inactive)
SK-MEL-2
  GI50: 4.26 µM (inactive)
RXF 393
  GI50: 3.61 µM (inactive)
UACC-257
  GI50: > 10 µM (inactive)
SW-620
  GI50: > 10 µM (inactive)
T47D
  GI50: 3.18 µM (inactive)
A549
  GI50: 3.4 µM (inactive)
U-251
  GI50: 4.5 µM (inactive)
ACHN
  GI50: 3.91 µM (inactive)
MDA-MB-435
  GI50: 2.81 µM (inactive)
OVCAR-5
  GI50: > 10 µM (inactive)
SK-OV-3
  GI50: 2.54 µM (inactive)

## Cc1ccc(S(=O)(=O)NC(=O)NNc2ccc(F)cc2)cc1
NCI-H23
  GI50: > 10 µM (inactive)
HCT-15
  GI50: > 100 µM
MDA-N
  GI50: > 100 µM (inactive)
MOLT-4
  GI50: > 100 µM (inactive)
EKVX
  GI50: > 100 µM (inactive)
Hs-578T
  GI50: > 100 µM (inactive)
SK-MEL-28
  GI50: > 100 µM (inactive)
SK-MEL-2
  GI50: > 100 µM (inactive)
RXF 393
  GI50: > 100 µM (inactive)
UACC-257
  GI50: > 100 µM (inactive)
SW-620
  GI50: > 100 µM (inactive)
T47D
  GI50: > 100 µM (inactive)
A549
  GI50: > 100 µM (inactive)
U-251
  GI50: > 100 µM (inactive)
ACHN
  GI50: > 100 µM (inactive)
MDA-MB-435
  GI50: > 100 µM (inactive)
OVCAR-5
  GI50: > 100 µM (inactive)
SK-OV-3
  GI50: > 100 µM (inactive)

## O=c1c2cc([N+](=O)[O-])ccc2oc2nc3n(c(=O)c12)CCCS3
NCI-H23
  GI50: > 100 µM (inactive)
HCT-15
  GI50: > 100 µM
MDA-N
  GI50: > 100 µM (inactive)
MOLT-4
  GI50: > 100 µM (inactive)
K562
  GI50: > 100 µM (inactive)
EKVX
  GI50: > 100 µM (inactive)
Hs-578T
  GI50: 56.1 µM (inactive)
SK-MEL-28
  GI50: > 100 µM (inactive)
SK-MEL-2
  GI50: > 100 µM (inactive)
RXF 393
  GI50: > 100 µM (inactive)
UACC-257
  GI50: > 100 µM (inactive)
SW-620
  GI50: > 100 µM (inactive)
T47D
  GI50: > 100 µM (inactive)
A549
  GI50: > 100 µM (inactive)
U-251
  GI50: > 100 µM (inactive)
ACHN
  GI50: > 100 µM (inactive)
MDA-MB-435
  GI50: > 100 µM (inactive)
OVCAR-5
  GI50: > 100 µM (inactive)
SK-OV-3
  GI50: > 100 µM (inactive)

## O=C(CC(O)(C(F)(F)Cl)C(F)(F)Cl)CC(O)(C(F)(F)Cl)C(F)(F)Cl
NCI-H23
  GI50: 0.975 µM (active)
HCT-15
  GI50: 1.07 µM
MDA-N
  GI50: 3.49 µM (inactive)
MOLT-4
  GI50: 2.14 µM (inactive)
K562
  GI50: 0.843 µM (active)
EKVX
  GI50: 1.21 µM (inactive)
Hs-578T
  GI50: 1.92 µM (inactive)
SK-MEL-28
  GI50: 1.95 µM (inactive)
SK-MEL-2
  GI50: 1.13 µM (inactive)
RXF 393
  GI50: 1.8 µM (inactive)
UACC-257
  GI50: 1.41 µM (inactive)
SW-620
  GI50: 3.36 µM (inactive)
T47D
  GI50: 0.647 µM (active)
OVCAR-8
  GI50: 2.58 µM (inactive)
A549
  GI50: 1.73 µM (inactive)
U-251
  GI50: 1.65 µM (inactive)
ACHN
  GI50: 0.927 µM (active)
MDA-MB-435
  GI50: 1.69 µM (inactive)
SK-OV-3
  GI50: 1.87 µM (inactive)

## Nc1nnnn1NC(=O)NCCCl
NCI-H23
  GI50: > 10 µM (inactive)
HCT-15
  GI50: > 10 µM
MDA-N
  GI50: > 10 µM (inactive)
MOLT-4
  GI50: > 10 µM (inactive)
K562
  GI50: > 10 µM (inactive)
EKVX
  GI50: > 10 µM (inactive)
Hs-578T
  GI50: > 10 µM (inactive)
SK-MEL-28
  GI50: > 10 µM (inactive)
SK-MEL-2
  GI50: > 10 µM (inactive)
RXF 393
  GI50: > 10 µM (inactive)
UACC-257
  GI50: > 10 µM (inactive)
SW-620
  GI50: > 10 µM (inactive)
T47D
  GI50: > 10 µM (inactive)
OVCAR-8
  GI50: > 10 µM (inactive)
A549
  GI50: > 10 µM (inactive)
U-251
  GI50: > 10 µM (inactive)
ACHN
  GI50: > 10 µM (inactive)
MDA-MB-435
  GI50: > 10 µM (inactive)
SK-OV-3
  GI50: > 10 µM (inactive)

## COC(=O)C1C(C(=O)OC)C2(OC(c3ccc(Cl)cc3)=CC2=O)C12OC(c1ccc(Cl)cc1)=CC2=O (stereo unspecified)
NCI-H23
  GI50: 20.8 µM (inactive)
HCT-15
  GI50: 16.4 µM
MDA-N
  GI50: 18.3 µM (inactive)
MOLT-4
  GI50: 4.45 µM (inactive)
K562
  GI50: 19.3 µM (inactive)
EKVX
  GI50: 22.3 µM (inactive)
Hs-578T
  GI50: 30.5 µM (inactive)
SK-MEL-28
  GI50: 36.8 µM (inactive)
SK-MEL-2
  GI50: 24 µM (inactive)
RXF 393
  GI50: 17.5 µM (inactive)
UACC-257
  GI50: 22.9 µM (inactive)
SW-620
  GI50: 32.7 µM (inactive)
T47D
  GI50: 14.8 µM (inactive)
A549
  GI50: 34.1 µM (inactive)
U-251
  GI50: 32.1 µM (inactive)
ACHN
  GI50: 19.9 µM (inactive)
MDA-MB-435
  GI50: 22.5 µM (inactive)
OVCAR-5
  GI50: 24.3 µM (inactive)
SK-OV-3
  GI50: 71.1 µM (inactive)

## COc1cc2c(c(OC)c1OC)-c1ccc(OC)c(=O)cc1[C@@H](NC(=O)c1ccccc1)CC2
NCI-H23
  GI50: 0.0128 µM (active)
HCT-15
  GI50: 0.021 µM
MDA-N
  GI50: < 0.01 µM (active)
MOLT-4
  GI50: 0.0562 µM (active)
K562
  GI50: < 0.0114 µM (active)
EKVX
  GI50: 5.15 µM (inactive)
Hs-578T
  GI50: < 0.0126 µM (active)
SK-MEL-28
  GI50: 1.86 µM (inactive)
SK-MEL-2
  GI50: 0.012 µM (active)
RXF 393
  GI50: 0.0234 µM (active)
UACC-257
  GI50: 0.148 µM (active)
SW-620
  GI50: 0.0119 µM (active)
T47D
  GI50: 58.3 µM (inactive)
A549
  GI50: 0.018 µM (active)
U-251
  GI50: 0.0147 µM (active)
ACHN
  GI50: 0.0305 µM (active)
MDA-MB-435
  GI50: < 0.01 µM (active)
OVCAR-5
  GI50: 1.07 µM (active)
SK-OV-3
  GI50: 0.0646 µM (active)
